# Measurements published in patent publication US20090012088A1 (priority 2005, published 2009).
# Entries after “also recorded” stand apart in the source; their conditions may differ. Like-named read-outs stand apart in the source and are kept apart here.
# Legend:
# [1] = tested on: NAD^+ depletion in HL-60 cell lysate; assay: Whole cell assay screen: NAD+ depletion in H2O2-activated HL-60 cell lysate; type: cell-based
# Method: To identify a non-toxic, non-DNA intercalating, cell permeable small molecule inhibitor of PARG, a high-throughput screen is devised. Given the severe challenges in isolating enough of the PAR substrate for an in vitro screen directly for PARG inhibition, we develop a primary screen that utilizes cell lysates and, in particular, mammalian cell lysates. In this assay, HL-60 cells are treated with H2O2 to damage their DNA (which activates PARP-1) and then lyse the cells. In individual wells of a 384-well plate, this cell lysate is incubated with 22,000 different small molecules from an in-house compound collection; these compounds are either purchased (from ChemBridge Corp.) or collected from various sources at the University of Illinois. (28) NAD^+ levels are measured using a fluorescent method based on the chemical conversion of NAD^+ to a fluorescent product (29, 30) (FIG. 14A). The amount of NAD^+ consumed in each well is monitored, and any compounds that prevent NAD^+ consumption are classified “hits” in this primary screen.
# Library screen: 12.5 μL of Lysing PARP buffer (50 mM Tris, 10 mM MgCl2, pH 8.0, 1% Triton X-100) containing 100 μM NAD^+ is added to each well of a 384-well plate. Library compounds at 10 mM in DMSO are transferred using a 384-well pin transfer device that delivers 0.1 μL. HL-60 cells are spun down at 200 g for 5 min. and resuspended in Lysing PARP buffer to a concentration of 8×10^6 cells/mL. 10 μL of a 30% H2O2 solution is added per mL of cells. 12.5 μL of the activated cell lysate is added to the plates. The plates are incubated for 60 min. at 37° C. The concentration of NAD^+ is then determined using a fluorescent assay^1. 10 μL of a 2 M KOH solution and 10 μL of a 20% acetophenone solution (in ethanol) is added to each well. The plate is then incubated at 4° C. for 10 min. 45 μL of a 88% formic acid solution was added to each well. The plate was then incubated for 5 min. in a 110° C. oven. Once the plate cools, the fluorescent intensity of each well is determined on a Criterion Analyst AD (Molecular Devices) with an excitation of 360 nm and an emission of 445 nm.
# [2] = target: PARG (Bos taurus, UniProt O02776); assay: Inhibition of PARG activity in vitro (quantitation of free ADP-ribose with benzamidine, fluorescence); type: biochemical; set-up: purchased Biomol
# Method: PARG assay: Production and purification of PAR. PARP-1 (20 units) is added to 900 μL of PARP assay buffer containing 1 mM NAD^+ and 22.5 μg activated DNA. This reaction was run at 37° C. for 30 min and stopped by the addition of 300 μL of cold 100% trichloroacetic acid. The proteins thus precipitated are collected by centrifugation at 18,000 g for 30 min at 4° C. After removal of the supernatant, 1 mL of 1 M NaOH and 100 mM EDTA are added to the pellet and incubated for 2 h at 37° C. to cleave the PAR from the PARP protein acceptor. Then 9 mL of PAR buffer A (250 mM ammonium acetate, 6 M guanidinium HCl, 10 mM EDTA, pH 9.0) is added to the PAR and applied to a PROSEP-PB (Millipore) phenyl boronate column that is pre-equilibrated with PAR buffer A. The flowthrough is then reapplied to the column to ensure that all PAR is bound. The column is then washed with 25 mL of PAR buffer A, followed by 10 mL of PAR buffer B (1 M ammonium acetate and 1 mM EDTA, pH 9.0). The bound PAR is eluted with 4 mL of water collected in 1-mL fractions. Fractions containing PAR are pooled and concentrated. The concentration, measured as monomer, is determined by measuring the absorbance at 258 nm. PAR has an extinction coefficient of 13,500 cm^−1 at 258 nm.
# Inhibition of PARG Activity: To determine the PARG IC50 values of the compounds, 39 μL of a 25.6 μM solution of PAR in PARG assay (50 mM KCl, 50 mM KH2PO4, pH 7.2) buffer and 1 μL of the compounds at varying concentrations (in PARG assay buffer) are added into the wells of a 384-well plate. The reaction is initiated by the addition of 10 μL of PARG (Biomol) at a concentration of 1 ng/ml (in PARG assay buffer), bringing the final concentration to […] and 20 μM PAR with varying concentrations of compounds in a total volume of 50 μL. The plate is incubated for 20 min at room temperature. The amount of free ADP-ribose hemiacetals is determined by the addition of 5 μL of an aqueous 8.5M KOH solution and 5 μL of an aqueous 850 μM benzamidine solution to each well. The plate is then incubated for 10 min in an oven set at 110° C. The plate is allowed to cool and then read on a Criterion Analyst AD with an excitation of 360 nm and an emission of 445 nm.
# PARG, sequence (O02776 whole entry): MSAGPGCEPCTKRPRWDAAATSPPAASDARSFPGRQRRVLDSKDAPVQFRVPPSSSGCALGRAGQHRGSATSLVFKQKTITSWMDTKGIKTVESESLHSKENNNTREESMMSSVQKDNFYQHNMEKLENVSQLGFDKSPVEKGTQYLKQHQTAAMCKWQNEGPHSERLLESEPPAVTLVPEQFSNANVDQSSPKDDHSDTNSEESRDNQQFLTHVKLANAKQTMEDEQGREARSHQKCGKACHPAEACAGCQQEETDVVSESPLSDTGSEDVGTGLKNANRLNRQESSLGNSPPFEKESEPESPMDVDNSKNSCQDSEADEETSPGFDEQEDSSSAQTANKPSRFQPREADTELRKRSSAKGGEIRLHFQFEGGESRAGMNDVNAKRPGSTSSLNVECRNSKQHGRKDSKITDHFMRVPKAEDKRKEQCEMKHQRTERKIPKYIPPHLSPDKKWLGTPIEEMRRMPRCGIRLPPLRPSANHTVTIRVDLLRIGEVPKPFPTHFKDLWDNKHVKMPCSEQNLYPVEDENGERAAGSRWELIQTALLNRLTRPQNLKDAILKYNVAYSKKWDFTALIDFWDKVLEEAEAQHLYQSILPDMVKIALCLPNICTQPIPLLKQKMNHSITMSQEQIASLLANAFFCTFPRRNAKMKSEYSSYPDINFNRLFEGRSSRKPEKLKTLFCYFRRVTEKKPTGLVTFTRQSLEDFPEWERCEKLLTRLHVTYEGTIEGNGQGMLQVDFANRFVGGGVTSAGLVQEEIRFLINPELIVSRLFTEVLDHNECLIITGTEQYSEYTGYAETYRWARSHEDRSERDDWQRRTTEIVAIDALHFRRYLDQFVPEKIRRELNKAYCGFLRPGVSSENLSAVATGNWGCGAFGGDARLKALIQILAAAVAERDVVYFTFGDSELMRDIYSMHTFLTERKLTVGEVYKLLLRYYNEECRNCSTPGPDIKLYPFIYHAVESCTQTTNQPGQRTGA
compound,measurement,setting,value
"Nc1c(Cl)cnn(-c2ccccc2)c1=O [compound 5, 4-Amino-5-chloro-2-phenyl-2H-pyridazin-3-one]",Inhibition of NAD+ depletion in the whole cell assay,[1],do not inhibit NAD^+ depletion
same,PARG inhibition in vitro (in words),[2],inactive; also recorded: does not inhibit PARG
same,PARG inhibition in vitro (in words),[2]; listed as analogue 5,do not inhibit NAD^+ depletion or PARG activity
"CN(C)c1cnn(-c2ccccc2)c(=O)c1N [PIP-1, 4-Amino-5-dimethylamino-2-phenyl-2H-pyridazin-3-one]",Inhibition of NAD+ depletion in the whole cell assay,[1],inhibit NAD^+ depletion
same,IC50,[2],490 nM
same,PARG inhibition in vitro (in words),[2],inhibits PARG in vitro in a dose-dependent manner; also recorded: inhibits PARG in vitro in a dose dependent manner; also recorded: inhibit PARG activity in vitro
